In brackets after ≈: the same amount, converted by molar mass.
How the values were obtained:
[1] = system: Human osteosarcoma SJSA-1 cells; assay: In vitro cell proliferation suppressive activity (MTT method); format: cell-based; settings: 3 days culture; for IC50: Homo sapiens, 72 h, read-out: IC50 (concentration at which 50% of the cell proliferation was suppressed), SJSA-1 cells
Experimental: (§1) Proliferation suppressive activities of ellagitannin against various kinds of cancer cell lines were measured in the following manner.
(§2) Each of the following cancer cell lines was placed in a 96-well plate at 5×10^3 cell/100 μL per well using a DMEM medium (product of NISSUI PHARMACEUTICAL CO., LTD.) containing FBS (product of Sigma-Aldrich Co.) in an amount of 10 liquid amount %, and was cultured for 24 hours at 37° C. in an atmosphere of 5% CO2, whereby the cells were allowed to adhere to the plate completely.
(§3) Each of the following ellagitannins was added thereto so as to have final concentrations of 100 μg/mL, 50 μg/mL, 25 μg/mL, 12.5 μg/mL, 6.25 μg/mL, 3.13 μg/mL, 1.56 μg/mL, and 0.78 μg/mL, followed by culturing for 3 days at 37° C. in an atomosphere of 5% CO2.
(§4) In addition, as comparative controls, the 96-well plates to which the cancer cells had been allowed to adhere were cultured for 3 days at 37° C. in an atomosphere of 5% CO2 without addition of ellagitannin.
(§5) After the culturing for 3 days, cell proliferation was measured using the MTT method. The MTT method was performed as follows. Specifically, 10 μL of an MTT solution (a PBS solution containing MTT (3-(4,5-dimethylthiazol-2-yl)-2,5-diphenyltetrazolium bromide) at a concentration of 5 mg/mL) was added to each well and cultured for 4 hours. The formed formazan products were dissolved by adding 100 μL of a 20% SDS solution to each well, and measured for absorbance at 570 nm using LABSYSTEMS MULTISCAN MS (product of DS Pharma Biomedical Co., Ltd.).
(§6) The absorbance of the system involving the addition of the ellagitannin was indicated as “A” and the absorbance of the system of the comparative controls was indicated as “B”, and cell proliferation inhibitory rate (%) was calculated from the following formula (1).
(§7) Cell proliferation inhibitory rate(%)={(B−A)/B}×100 Formula (1)
(§8) Next, the cell proliferation inhibitory rate was used to determine a concentration at which 50% of the cell proliferation was suppressed (IC50 value).

[2] = system: Human lung cancer NCI-H460 cells; assay: as above; format: cell-based; settings: 3 days culture; for IC50: Homo sapiens, 72 h, read-out: IC50 (concentration at which 50% of the cell proliferation was suppressed), NCI-H460 cells
Experimental: as §1, §2, §3, §4, §5, §6, §7, §8

[3] = system: human osteosarcoma SJSA-1 cells; assay: Antitumor activity-2 in cancer cell-transplanted mice (Test Example 2-2); format: in vivo, mouse; settings: nude mice transplanted with SJSA-1 cells; 12.5, 6.25 or 3.13 mg/kg, tail vein, twice a week; FIG. 3
Excerpt: Eugeniin (product of […] Science Co., Ltd.) was used as the ellagitannin and was studied for antitumor activity in the following manner.

[4] = system: human osteosarcoma SJSA-1 cells; assay: Antitumor activity-1 in cancer cell-transplanted mice (Test Example 2-1); format: in vivo, mouse; settings: nude mice transplanted with SJSA-1 cells; 12.5 mg/kg, tail vein, twice a week from one week after transplantation; FIG. 1
Experimental: (§9) The antitumor effect of the geraniin was evaluated by observing the proliferation state of the tumor after the transplantation of the cells. Specifically, a longer diameter and a shorter diameter of each tumor were meatured with a caliper, and a tumor volume was measured from the following formula (2). Its average and standard deviation were obtained to determine the effect in the geraniin-administration groups in comparison to the comparative control groups.
(§10) Tumore volume=longer diameter×(shorter diameter)^2÷2 Formula (2)

[5] = system: human lung cancer NCI-H460 cells; assay: as above; format: in vivo, mouse; settings: nude mice transplanted with NCI-H460 cells; 12.5 mg/kg, tail vein, twice a week from one week after transplantation; FIG. 2
Experimental: as §9, §10

**Q.** Which IC50 [1] does the source give for `O=C(OC1OC2COC(=O)c3cc(O)c(O)c(O)c3-c3c(cc(O)c(O)c3O)C(=O)OC2C(OC(=O)c2cc(O)c(O)c(O)c2)C1O)c1cc(O)c(O)c(O)c1` (stereo not drawn) [1,3-di-O-galloyl-4,6-O-hexahydroxydiphenoyl glucose] here?
**A.** Its IC50 is 41 µg/mL (≈ 52.1 µM).

**Q.** And the IC50 [2]?
**A.** Its IC50 is 11 µg/mL (≈ 14 µM).

**Q.** For `O=C(O[C@@H]1O[C@@H]2COC(=O)c3cc(O)c(O)c(O)c3-c3c(cc(O)c(O)c3O)C(=O)O[C@H]2[C@H](OC(=O)c2cc(O)c(O)c(O)c2)[C@H]1OC(=O)c1cc(O)c(O)c(O)c1)c1cc(O)c(O)c(O)c1` [Eugeniin, eugeniin], which IC50 [1] is on record?
**A.** Its IC50 is 18 µg/mL (≈ 19.2 µM).

**Q.** What about the IC50 [2] of the same compound?
**A.** The IC50 was 5.6 µg/mL (≈ 5.97 µM).

**Q.** And the “tumor volume compared with the comparative control group (Saline)” value [3]?
**A.** Its value is “significantly smaller”.

**Q.** Which “tumor volume compared with the comparative control group (Saline)” value [4] does the source give for `O=C1O[C@H]2[C@@H]3OC(=O)c4cc(O)c(O)c(O)c4-c4c(cc(O)c(O)c4O)C(=O)OC[C@H]2O[C@@H](OC(=O)c2cc(O)c(O)c(O)c2)[C@@H]3OC(=O)c2cc(O)c(O)c3c2[C@@H]2C1=CC(=O)[C@](O)(O3)C2(O)O` [Geraniin, geraniin] here?
**A.** The value was “significantly smaller”.

**Q.** And the “tumor volume compared with the comparative control group (Saline)” value [5]?
**A.** The value was “significantly smaller”.

**Q.** And the IC50 [1]?
**A.** Its IC50 is 100 µg/mL (≈ 105 µM).

**Q.** What about the IC50 [2] of the same compound?
**A.** Its IC50 is 40 µg/mL (≈ 42 µM).

**Q.** Which results are given for `O=C(OC1OC2COC(=O)c3cc(O)c(O)c(O)c3-c3c(cc(O)c(O)c3O)C(=O)OC2C(O)C1O)c1cc(O)c(O)c(O)c1` (stereo not drawn) [Strictinin, strictinin]?
**A.** IC50 [1]: ≥ 110 µg/mL; IC50 [2]: 33 µg/mL (≈ 52 µM)

**Q.** How did the IC50 [1] turn out when `O=C(OC1C(O)OC2COC(=O)c3cc(O)c(O)c(O)c3-c3c(cc(O)c(O)c3O)C(=O)OC2C1OC(=O)c1cc(O)c(O)c(O)c1)c1cc(O)c(O)c(O)c1` (stereo not drawn) [Tellimagrandin I, tellimagrandin I] was run?
**A.** Its IC50 is 46 µg/mL (≈ 58.5 µM).

**Q.** What about the IC50 [2] of the same compound?
**A.** Its IC50 is 32 µg/mL (≈ 40.7 µM).

**Q.** With casuarictin as the compound, how does the “IC50 (concentration at which 50% of the cell proliferation was suppressed), SJSA-1 cells” value [1] read?
**A.** The value was 61 µg/mL.

**Q.** And the “IC50 (concentration at which 50% of the cell proliferation was suppressed), NCI-H460 cells” value [2]?
**A.** Its value is 35 µg/mL.
